The text below walks through data of patent US4329362A, “2-Amino-4-(substituted hydrazino)-6-oxo pyrimidines” (Burroughs Wellcome Co., priority 1977, dated 1982).

The pKa is the negative logarithm of the acid dissociation constant.

Counter-ions that a name gives are not always drawn.

In one data set the target is dihydropteroic acid biosynthesis (DHPB): hydroxymethyldihydropteridine pyrophosphokinase and dihydropteroate synthetase. The data set can be described thus: coupled assay of dihydropteroic acid biosynthesis (kinase + synthetase), 14C H2pteroate formation. The class given is biochemical. The note with it: coupled assay method; E. coli extract, 0-50% ammonium sulfate fraction; 14C in H2 pteroate from p-aminobenzoate-7-14C; read-out: Concentration in μM required to give 50% inhibition of DHPB. The text has this: Potential inhibitors of DHPB synthesis may be tested by investigating the inhibitory effect they impose in the enzymes responsible for the biosynthesis of dihydropteroic acid (DPtA), namely hydroxymethyldihydropteridine pyrophosphokinase (HMPPS), and dihydropteroate synthetase, hereinafter referred to as `synthetase`. In the following reaction equations the compounds are referred to by their abbreviated forms defined hereinbefore in the specification. [formula]
This reaction requires two enzymes since the starting substrates are H2 ptCH2 OH, ATP, and pAB, and the products are H2 pteroate and AMP.
The reactions are followed by determining the amount of ^14 C in H2 pteroate after separation from the substrate, p-aminobenzoate-7-^14 C, by paper chromatography.
Take `COc1cc(OC)c(C(=O)Cc2nn(C)c3nc(N)[nH]c(=O)c3c2=O)c(OC)c1` [7-Amino-3-(2,4,6-trimethoxyphenacyl)-1-methylpyrimido(4,5-c)pyridazine-4,5(1H, 6H)-dione]: the IC50 turned out to be 2.7 µM.

For the compound `COc1ccc(C(=O)Cc2nn(C)c3nc(N)[nH]c(=O)c3c2=O)c(OC)c1` [7-Amino-3-(2,4-dimethoxyphenacyl)-1-methylpyrimido(4,5-c)pyridazine-4,5(1H,6H)-dione], the IC50 is 0.14 µM.

As to `COc1ccc(OC)c(C(=O)Cc2nn(C)c3nc(N)[nH]c(=O)c3c2=O)c1` [7-Amino-3-(2,5-dimethoxyphenacyl)-1-methylpyrimido(4,5-c)pyridazine-4,5(1H,6H)-dione], the IC50 amounted to 0.06 µM.

For the compound `COc1cc(C(=O)Cc2nn(C)c3nc(N)[nH]c(=O)c3c2=O)cc(OC)c1OC` [7-Amino-3-(3,4,5-trimethoxyphenacyl)-1-methylpyrimido(4,5-c)pyridazine-4,5(1H, 6H)-dione], the IC50 was 0.03 µM.

In the case of `COc1ccc(C(=O)Cc2nn(C)c3nc(N)[nH]c(=O)c3c2=O)cc1OC` [7-Amino-3-(3,4-dimethoxyphenacyl)-1-methylpyrimido(4,5-c)pyridazine-4,5(1H,6H)-dione], the IC50 was determined as 0.15 µM.

Regarding `Cn1nc(CC(=O)c2cccc(O)c2)c(=O)c2c(=O)[nH]c(N)nc21` [7-Amino-3-(3-hydroxyphenacyl)-1-methylpyrimido(4,5-c)pyridazine-4,5(1H, 6H)-dione], the IC50 came to 0.22 µM.

Consider `Cn1nc(Cc2ccccc2[N+](=O)[O-])c(=O)c2c(O)nc(N)nc21` [7-amino-1-methyl-3-(2-nitrobenzyl)-4-oxo-5-hydroxy-1,4-dihydropyrimido(4,5-c)pyridazine], for which the IC50 turned out to be 12 µM.

For `COc1cc(CC(C#N)c2nn(C)c3nc(N)nc(O)c3c2=O)cc(OC)c1OC` (stereo not drawn) [7-amino-1-methyl-3-(α-cyano-3,4,5-trimethoxyphenethyl)-4-oxo-5-hydroxy-1,4-dihydropyrimido(4,5-c)pyridazine], the IC50 stood at 11 µM.

For `COc1cc(Cc2nn(C)c3nc(N)nc(O)c3c2=O)cc(OC)c1OC` [7-amino-3-(3,4,5-trimethoxybenzyl)-1-methyl-4-oxo-5-hydroxy-1,4-dihydropyrimido(4,5-c)pyridazine], the IC50 turned out to be 0.77 µM.

For the compound `COc1ccc(Cc2nn(C)c3nc(N)nc(O)c3c2=O)cc1OC` [7-amino-3-(3,4-dimethoxybenzyl)-1-methyl-4-oxo-5-hydroxy-1,4-dihydropyrimido(4,5-c)pyridazine], the IC50 was determined as 0.86 µM.

As to `CCc1nn(C)c2nc(N)[nH]c(=O)c2c1=O` [C2 H5], the IC50 was found to be 33 µM.

`Cn1nc(-c2ccccc2)c(=O)c2c(O)nc(N)nc21` [C6 H5, 7-amino-1-methyl-3-phenyl-4-oxo-5-hydroxy-1,4-dihydropyrimido(4,5-c)pyridazine]: the IC50 was found to be 15 µM.

On to `Cn1nc(Cc2ccccc2)c(=O)c2c(O)nc(N)nc21` [CH2 C6 H5, 7-amino-1-methyl-3-benzyl-4-oxo-5-hydroxy-1,4-dihydropyrimido(4,5-c)pyridazine], for which the IC50 was determined as 11 µM.

As for `CCOC(=O)CCc1nn(C)c2nc(N)[nH]c(=O)c2c1=O` [CH2 CH2 CO2 C2 H5], the IC50 is 16 µM.

As for `Cn1nc(CCC(=O)O)c(=O)c2c(=O)[nH]c(N)nc21` [CH2 CH2 CO2 H], the IC50 was found to be 5.5 µM.

Regarding `CCOC(=O)Cc1nn(C)c2nc(N)nc(O)c2c1=O` [CH2 CO2 C2 H5, 7-amino-1-methyl-3-(ethoxycarbonylmethyl)-4-oxo-5-hydroxy-1,4-dihydropyrimido(4,5-c)pyridazine], the IC50 is 6.2 µM.

In the case of `Cn1nc(CC(=O)c2ccccc2)c(=O)c2c(=O)[nH]c(N)nc21` [CH2 COC6 H5, 7-Amino-3-phenacyl-1-methylpyrimido(4,5-c)pyridazine-4,5(1H, 6H)-dione], the IC50 was found to be 0.76 µM.

On to `CC(=O)OCc1nn(C)c2nc(N)[nH]c(=O)c2c1=O` [CH2 OCOCH3, 7-Amino-3-acetoxymethyl-1-mehylpyrimido(4,5-c)pyridazine-4,5(1H, 6H)-dione], for which the IC50 amounted to 15 µM.

On to `Cn1nc(CO)c(=O)c2c(=O)[nH]c(N)nc21` [CH2 OH, 7-Amino-3-hydroxymethyl-1-methylpyrimido(4,5-c)pyridazine-4,5(1H, 6H)-dione Sodium Salt], for which the IC50 worked out at 12 µM.

Consider `Cc1nn(C)c2nc(N)[nH]c(=O)c2c1=O` [CH3, 7-Amino-1,3-dimethylpyrimido(4,5-c)pyridazine-4,5-(1H, 6H)-dione], for which the IC50 worked out at 16 µM.

Consider `CCOC(=O)C(C)c1nn(C)c2nc(N)[nH]c(=O)c2c1=O` (stereo not shown) [CH(CH3)CO2 C2 H5, 7-Amino-3-(1-ethoxycarbonylethyl)-1-methylpyrimido(4,5-c)pyridazine-4,5(1H,6H)-dione], for which the IC50 amounted to 1.6 µM.

Consider `CC(C(=O)O)c1nn(C)c2nc(N)[nH]c(=O)c2c1=O` (stereo not shown) [CH(CH3)CO2 H, 7-Amino-3-(1-carboxyethyl)-1-methylpyrimido(4,5-c)pyridazine-4,5(1H, 6H)-dione Disodium Salt], for which the IC50 came out at 3.7 µM.

As to `CCOC(=O)C(OC)c1nn(C)c2nc(N)[nH]c(=O)c2c1=O` (stereo not shown) [CH(OCH3)CO2 C2 H5], the IC50 worked out at 17 µM.

With `COC(C(=O)O)c1nn(C)c2nc(N)nc(O)c2c1=O` (stereo not shown) [CH(OCH3)CO2 H, 7-amino-1-methyl-3-((1-methoxy)carboxymethyl)-4-oxo-5-hydroxy-1,4-dihydropyrimido(4,5-c)pyridazine], the IC50 came to 2.8 µM.

In the case of `Cn1nc(C(=O)O)c(=O)c2c(=O)[nH]c(N)nc21` [CO2 H (disodium salt), 7-Amino-3-carboxy-1-methylpyrimido(4,5-c)pyridazine-4,5(1H, 6H)-dione Disodium Salt], the IC50 stood at 21 µM.

With `Cn1nc(-c2c[nH]c3ccccc23)c(=O)c2c(=O)[nH]c(N)nc21` [Example 3-Indolyl], the IC50 was found to be 30 µM.

`CC(C)Cc1nn(C)c2nc(N)[nH]c(=O)c2c1=O` [iso-C4 H9]: the IC50 worked out at 20 µM.

As to `CCCc1nn(C)c2nc(N)[nH]c(=O)c2c1=O` [n-C3 H7], the IC50 came out at 45 µM.

In the case of `CCCCCCc1nn(C)c2nc(N)[nH]c(=O)c2c1=O` [n-C6 H13], the IC50 is 50 µM.

System in another data set: not listed separately
Nature of the data set: pKa values. It counts as physicochemical. The note with it: read-out: pKa values (first value).
For the compound `Cc1nn(C)c2nc(N)[nH]c(=O)c2c1=O` [CH3, 7-Amino-1,3-dimethylpyrimido(4,5-c)pyridazine-4,5-(1H, 6H)-dione], the pKa was 4.1 ± 0.1.

Staying with this data set, now noted: read-out: pKa values (second value).
For `Cc1nn(C)c2nc(N)[nH]c(=O)c2c1=O` [CH3, 7-Amino-1,3-dimethylpyrimido(4,5-c)pyridazine-4,5-(1H, 6H)-dione], the pKa came out at 8.6 ± 0.1.
